# From patent US20100285959A1, “HERBICIDAL MIXTURES” (priority 2006, published 2010)
# What was measured:
# winter wheat (TRZAW) = test: Test 22 growth chamber, postemergence; assay type: in vivo, Triticum aestivum; conditions: 25 DAA
# Method: A test was conducted to evaluate the effects on winter barley (HORVW, Hordeum vulgare L.), winter wheat (TRZAW, Triticum aestivum L.), and several weed species of mixtures of Compound 2 with the commercial herbicides (2,4-dichlorophenoxy)acetic acid (2,4-D) and (4-chloro-2-methylphenoxy)acetic acid (MCPA), auxin mimics. […] Plants were treated postemergence at the 2-4 leaf growth stage, except KCHSC, SASKR and STEME which were in the 4-8 leaf growth stage. Each treatment was replicated one time. […] Plants were watered as needed. […] Results are from single replicates.
# Canada horseweed (ERICA) = test: Test 9 field trial, emerged weeds before corn planting; assay type: in vivo, Erigeron canadensis; conditions: g a.i./ha: Cpd 2 100, Glyphosate 1540, Paraquat 1150
# Method: (§1) Corn seeds (hybrid ‘Pioneer 34M91 RR’) were planted in mid spring season, about 3.8 cm deep in a silty clay loam soil having a pH of 6.7. Plots were 9.1 m long by 3.0 m. The field was managed using no-till practices. […] Compound 2 and paraquat treatments, alone and in combination, also included a surfactant. Glyphosate, alone and with Compound 2, included ammonium sulfate in the treatment mixture. […] The effects on the weeds in the treated plots and untreated control plots were recorded 7, 14, 23, 30 and 57 days after application. Most of the weed species could not be evaluated at every timing. Corn response was only evaluated 57 days after application. […] Results are the means of the three replicates.
# giant foxtail (SETFA) = test: Test 2 field trial, preemergence; assay type: in vivo, Setaria faberi; set-up: scale not given here
# Source text: Corn seeds (hybrid ‘Pioneer 31G96’) were planted in mid spring season, 3.8 cm deep in a clay loam soil having 2% organic matter and a pH of 6.6. Plots were 6.1 m long by 3.0 m wide with rows spaced 76 cm apart. Seeds were spaced 15 cm apart within the rows. The field was managed using conventional tillage practices. […] A few of the weed species could not be evaluated at every timing. […] Results are the means of the three replicates.
# common ragweed (AMBEL) = test: Test 14 field trial, preemergence, growth as percent of control; assay type: in vivo, Ambrosia artemisiifolia
# Source text: Corn seeds (hybrid ‘Pioneer 31G96 RR’) were planted in mid spring season, 3.8 cm deep in a clay loam soil having 2% organic matter and a pH of 6.6. Plots were 6.1 m long by 3.0 m wide with rows spaced 76 cm apart. Seeds were spaced 15 cm apart within the rows. The field was managed using conventional tillage practices. […] Yellow nutsedge was only evaluated 19 and 28 days after application, and ivyleaf morningglory could only be evaluated 28 days after application. […] Results are the means of the three replicates. This growth inhibition data was converted to results in the form of “plant growth as a percent of control plant growth” using the calculation “100 minus growth inhibition”. […] For “growth as a percent of control” data, Colby's Equation calculates the expected additive effect of herbicidal mixtures having two active ingredients as follows:
# Ga+b=GaGb/100 • wherein Ga+b is the growth as a percent of control of plants treated with the mixture expected from additive contribution of the individual components, • Ga is the observed growth as a percent of control of plants treated with the first active ingredient at the same use rate as in the mixture, and • Gb is the observed growth as a percent of control of plants treated with the second active ingredient at the same use rate as in the mixture. For mixtures having three active ingredients, Colby's Equation to calculate the expected additive effect of herbicidal mixtures is as follows:
# Ga+b+c=GaGbGc/10,000 • wherein Ga and Gb are as defined above and • Ga+b+c is the growth as a percent of control of plants treated with the mixture expected from additive contribution of the individual components, and • Gc is the observed growth as a percent of control of plants treated with the third active ingredient at the same use rate as in the mixture. When these two forms of Colby's Equation are used, if the observed effects on weeds are less than the expected values, the mixture is synergistic.
# prickly lettuce (LACSE) = test: Test 9 field trial, emerged weeds before corn planting; assay type: in vivo, Lactuca serriola; conditions: g a.i./ha: Cpd 2 100, Glyphosate 1540, Paraquat 1150
# Method: as §1
# [1] = tested on: Italian cocklebur (XANSI); test: Test 12 field trial, preemergence; assay type: in vivo, Xanthium strumarium ssp. italicum; set-up: scale not given here; conditions: Cpd 2 or Cpd 1 62 g a.i./ha, Diuron 2000 g a.i./ha
# Source text: In early-mid spring season, corn seeds (hybrid ‘Pioneer 3041’) were planted 5 cm deep and sugarcane nodes (variety RB-72.454) were planted 10 cm deep in separate plots in a clay soil having 2.6% organic matter and a pH of 5.6. Plots were 24 m long by 1.5 m wide with rows spaced 80 cm (corn) or 140 cm (sugarcane) apart. Corn seeds were spaced 15 cm apart and sugarcane nodes were spaced 10 cm apart within the rows. At the same time, weed seeds were broadcast over the surface of separate plots without a crop, one weed species per plot. The weed plots were rotary tilled to incorporate the weed seeds to a variety of depths. The field was managed using conventional tillage practices.
# jimsonweed (DATST) = test: Test 7 field trial, preemergence; assay type: in vivo, Datura stramonium
# Method: Plots were 7.6 m long by 3.0 m wide with rows spaced 76 cm apart. Seeds were spaced 15 cm apart within the rows. The field was managed using conventional tillage practices. […] Wild radish was evaluated 14 and 28 days after application. […] Results are the means of the three replicates.
# [2] = 18 DAA, g a.i./ha: Cpd 2 25, Atrazine 250
# [3] = 18 DAA, g a.i./ha: Cpd 2 50, Atrazine 500
# [4] = 18 DAA, g a.i./ha: Cpd 2 75, Atrazine 750
# [5] = 18 DAA, g a.i./ha: Cpd 2 100, Atrazine 1000
# [6] = 18 DAA, g a.i./ha: Cpd 2 150, Atrazine 1500
# [7] = 28 DAA, g a.i./ha: Cpd 2 25, Atrazine 250
# [8] = 28 DAA, g a.i./ha: Cpd 2 50, Atrazine 500
# [9] = 28 DAA, g a.i./ha: Cpd 2 75, Atrazine 750
# [10] = 28 DAA, g a.i./ha: Cpd 2 100, Atrazine 1000
# [11] = 28 DAA, g a.i./ha: Cpd 2 150, Atrazine 1500
structure (smiles),measurement,setting,value
"COC(=O)c1nc(C2CC2)nc(N)c1Cl [Compound 2, methyl 6-amino-5-chloro-2-cyclopropyl-4-pyrimidinecarboxylate]",Postemergence TRZAW Obs,winter wheat (TRZAW); Cpd 2 alone 4 g a.i./ha,30
same,Postemergence TRZAW Obs,winter wheat (TRZAW); Cpd 2 alone 8 g a.i./ha,35
same,Postemergence TRZAW Obs,winter wheat (TRZAW); Cpd 2 alone 16 g a.i./ha,40
same,ERICA Obs,Canada horseweed (ERICA); 7 DAA,62%
same,ERICA Obs,Canada horseweed (ERICA); 14 DAA,68%
same,ERICA Obs,Canada horseweed (ERICA); 23 DAA,75%
same,ERICA Obs,Canada horseweed (ERICA); 30 DAA,83%
same,ERICA Obs,Canada horseweed (ERICA); 57 DAA,100%
same,SETFA Obs,giant foxtail (SETFA); [2],13
same,SETFA Obs,giant foxtail (SETFA); [3],22
same,SETFA Obs,giant foxtail (SETFA); [4],32
same,SETFA Obs,giant foxtail (SETFA); [5],35
same,SETFA Obs,giant foxtail (SETFA); [6],43
same,SETFA Obs,giant foxtail (SETFA); [7],5
same,SETFA Obs,giant foxtail (SETFA); [8],10
same,SETFA Obs,giant foxtail (SETFA); [9],30
same,SETFA Obs,giant foxtail (SETFA); [10],23
same,SETFA Obs,giant foxtail (SETFA); [11],65
same,Obs growth % of control,"common ragweed (AMBEL); 19 DAA, 75 g a.i./ha",75%
same,Obs growth % of control,"common ragweed (AMBEL); 19 DAA, 100 g a.i./ha",55%
same,Obs growth % of control,"common ragweed (AMBEL); 28 DAA, 75 g a.i./ha",20%
same,Obs growth % of control,"common ragweed (AMBEL); 28 DAA, 100 g a.i./ha",15%
same,Obs growth % of control,"common ragweed (AMBEL); 56 DAA, 75 g a.i./ha",17%
same,Obs growth % of control,"common ragweed (AMBEL); 56 DAA, 100 g a.i./ha",12%
same,LACSE Obs,prickly lettuce (LACSE); 7 DAA,58%
same,LACSE Obs,prickly lettuce (LACSE); 14 DAA,63%
same,LACSE Obs,prickly lettuce (LACSE); 23 DAA,70%
same,LACSE Obs,prickly lettuce (LACSE); 30 DAA,88%
same,LACSE Obs,prickly lettuce (LACSE); 57 DAA,98%
same,XANSI Obs,[1]; 15 DAA,0
same,XANSI Obs,[1]; 29 DAA,70
same,XANSI Obs,[1]; 48 DAA,60
same,XANSI Obs,[1]; 61 DAA,40
same,DATST Obs,"jimsonweed (DATST); 14 DAA, 125 g a.i./ha",98%
same,DATST Obs,"jimsonweed (DATST); 14 DAA, 250 g a.i./ha",98%
same,DATST Obs,"jimsonweed (DATST); 14 DAA, 500 g a.i./ha",100%
same,DATST Obs,"jimsonweed (DATST); 28 DAA, 125 g a.i./ha",98%
same,DATST Obs,"jimsonweed (DATST); 28 DAA, 250 g a.i./ha",98%
same,DATST Obs,"jimsonweed (DATST); 28 DAA, 500 g a.i./ha",100%
same,DATST Obs,"jimsonweed (DATST); 62 DAA, 125 g a.i./ha",100%
same,DATST Obs,"jimsonweed (DATST); 62 DAA, 500 g a.i./ha",100%
O=C(O)CNCP(=O)(O)O [Glyphosate],ERICA Obs,Canada horseweed (ERICA); 7 DAA,45%
same,ERICA Obs,Canada horseweed (ERICA); 14 DAA,76%
same,ERICA Obs,Canada horseweed (ERICA); 23 DAA,98%
same,ERICA Obs,Canada horseweed (ERICA); 30 DAA,100%
same,ERICA Obs,Canada horseweed (ERICA); 57 DAA,84%
same,LACSE Obs,prickly lettuce (LACSE); 7 DAA,45%
same,LACSE Obs,prickly lettuce (LACSE); 14 DAA,87%
same,LACSE Obs,prickly lettuce (LACSE); 23 DAA,99%
same,LACSE Obs,prickly lettuce (LACSE); 30 DAA,100%
same,LACSE Obs,prickly lettuce (LACSE); 57 DAA,100%
"O=C(O)COc1ccc(Cl)cc1Cl [2,4-D, (2,4-dichlorophenoxy)acetic acid]",Postemergence TRZAW Obs,"winter wheat (TRZAW); 2,4-D or MCPA alone 250 g a.i./ha",20
"Nc1nc(C2CC2)nc(C(=O)O)c1Cl [Compound 1, 6-amino-5-chloro-2-cyclopropyl-4-pyrimidinecarboxylic acid]",XANSI Obs,[1]; 15 DAA,40
same,XANSI Obs,[1]; 29 DAA,90
same,XANSI Obs,[1]; 48 DAA,90
same,XANSI Obs,[1]; 61 DAA,60
"CCNc1nc(Cl)nc(NC(C)C)n1 [Atrazine, atrazine, reference compound]",SETFA Obs,giant foxtail (SETFA); [2],20
same,SETFA Obs,giant foxtail (SETFA); [3],25
same,SETFA Obs,giant foxtail (SETFA); [4],40
same,SETFA Obs,giant foxtail (SETFA); [5],43
same,SETFA Obs,giant foxtail (SETFA); [6],38
same,SETFA Obs,giant foxtail (SETFA); [7],37
same,SETFA Obs,giant foxtail (SETFA); [8],67
same,SETFA Obs,giant foxtail (SETFA); [9],83
same,SETFA Obs,giant foxtail (SETFA); [10],87
same,SETFA Obs,giant foxtail (SETFA); [11],88
same,SETFA Obs,"giant foxtail (SETFA); 55 DAA, g a.i./ha: Cpd 2 25, Atrazine 250",35
same,SETFA Obs,"giant foxtail (SETFA); 55 DAA, g a.i./ha: Cpd 2 50, Atrazine 500",60
same,SETFA Obs,"giant foxtail (SETFA); 55 DAA, g a.i./ha: Cpd 2 75, Atrazine 750",58
same,SETFA Obs,"giant foxtail (SETFA); 55 DAA, g a.i./ha: Cpd 2 100, Atrazine 1000",65
same,SETFA Obs,"giant foxtail (SETFA); 55 DAA, g a.i./ha: Cpd 2 150, Atrazine 1500",80
"CCc1cccc(C)c1N(C(=O)CCl)[C@@H](C)COC [S-Metolachlor, S-metolachlor, reference compound]",Obs growth % of control,"common ragweed (AMBEL); 19 DAA, 1870 g a.i./ha",100%
same,Obs growth % of control,"common ragweed (AMBEL); 28 DAA, 1870 g a.i./ha",75%
same,Obs growth % of control,"common ragweed (AMBEL); 56 DAA, 1870 g a.i./ha",93%
same,DATST Obs,"jimsonweed (DATST); 14 DAA, 1000 g a.i./ha",65%
same,DATST Obs,"jimsonweed (DATST); 28 DAA, 1000 g a.i./ha",57%
same,DATST Obs,"jimsonweed (DATST); 62 DAA, 1000 g a.i./ha",0%
